Publication PMC10823514, “Target Identification of a Class of Pyrazolone Protein Aggregation Inhibitor Therapeutics for Amyotrophic Lateral Sclerosis” (ACS Central Science, 2023)

Assays:
[1] = biological target: T1, 25 kDa protein band in PC12 SOD1^G93A cells (Rattus norvegicus, UniProt P62260); assay: Live-cell photoaffinity labeling: concentration-dependent covalent modification of the 25 kDa band by PRAPP (in-gel fluorescence, Hill fit); format: binding; details: all three treatment scenarios
T1 construct: we identified a 25 kDa covalently modified protein band in the PC12 SOD1^G93A cell line; endogenous in cells; host or cells: PC12-SOD1^G93A cells (live-cell UV photolabeling, then lysis)
T1 sequence (P62260 1-255): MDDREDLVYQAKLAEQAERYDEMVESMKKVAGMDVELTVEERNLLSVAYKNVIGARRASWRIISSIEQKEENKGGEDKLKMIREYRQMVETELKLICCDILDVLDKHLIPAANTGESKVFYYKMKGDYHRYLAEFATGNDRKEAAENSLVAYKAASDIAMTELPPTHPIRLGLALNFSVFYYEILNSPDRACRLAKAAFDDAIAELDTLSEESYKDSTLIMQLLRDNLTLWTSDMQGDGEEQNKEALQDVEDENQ
Description: PC12-SOD1^G93A cells were cultured and grown to 90% confluency (in 6-well plates) and washed once with PBS followed by the addition of serum medium containing the appropriate analyte at the indicated concentrations. Three incubation scenarios were studied (at 37 °C): Scenario 1) 12 h preincubation with PRAPP in the absence of MG-132; Scenario 2) 12 h preincubation with PRAPP in the absence of MG-132 followed by an additional 24 h incubation (control); and Scenario 3) 12 h preincubation with PRAPP followed by the addition of MG-132 (100 nM) and an additional 24 h incubation. After incubation, the medium was discarded and cells were washed with PBS (1 × 300 μL). […] Each lysate was centrifuged at 4 °C for 5 min at 13,000 rpm, and the resulting supernatant was concentrated with a centrifugal filter (Amicon Ultra Centrifugal Filters 3K cutoff, Millipore), normalized to 1.0 mg/mL by the Bradford assay, and analyzed immediately or stored at −80 °C for subsequent analysis.
In a darkened (wrapped with aluminum foil) Eppendorf tube, each lysate (30 μL [30 μg]) was incubated with 10 μL of the freshly prepared “click” premix containing CuSO4 (5 mM), sodium ascorbate (5 mM), TBTA (200 μM), and N3–Alexa-647 (50 μM) were added to PBS (50 mM, pH 7.4). […] In-gel fluorescence was monitored (excitation λ = 635 nm; emission λ = 670 nm) using a Typhoon 9400 (GE Healthcare) fluorimager. […]

14-3-3-H = biological target: T2, 14-3-3-H (Homo sapiens, UniProt Q04917); assay: Fluorescent thermal shift assay (FTSA) with 14-3-3-H; format: binding
T2 construct: His-tag (TEV-cleavable) (cleaved yes); host or cells: E. coli (BL21)
T2 sequence (Q04917 1-246): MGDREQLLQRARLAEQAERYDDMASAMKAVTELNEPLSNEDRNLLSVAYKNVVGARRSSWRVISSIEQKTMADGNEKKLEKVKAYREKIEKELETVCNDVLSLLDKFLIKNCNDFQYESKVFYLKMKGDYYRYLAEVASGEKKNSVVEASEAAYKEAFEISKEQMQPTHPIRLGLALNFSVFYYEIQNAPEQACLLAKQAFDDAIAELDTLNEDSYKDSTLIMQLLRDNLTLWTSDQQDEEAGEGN
Description: His-tagged 14-3-3-E, B, and H plasmids were purchased from Addgene (plasmid ID# 31562, 39128, and 38814, respectively). E. coli (BL21) were transformed with extracted plasmids via heat shock and plated on selected media. Individual colonies were selected, grown, and sequenced to confirm gene presence. 1 L cultures were grown to an OD600 of 0.6 at 37 °C and 220 rpm. Protein expression was induced with 1 mM IPTG and expressed for 12 h at 100 rpm and room temperature (approximately 25 °C). Cells were spun down at 4000 rpm for 15 min at 4 °C and resuspended in lysis buffer containing 50 mM Tris (7.4), 150 mM NaCl, 0.08% DDM, 5 mM imidazole, and 5% glycerol (with an EDTA-free complete mini protease inhibitor cocktail). Cells were lysed via sonication, and the lysate was separated from cell debris by centrifugation at 15,000 rpm, 4 °C, for 45 min. The His-tagged protein was purified using QIAGEN Ni-NTA superflow columns, and the His-tag was removed with TEV protease. His-tag-removed proteins were further purified by size exclusion chromatography. His tag removal and size exclusion chromatography purification were done at the Northwestern University Protein Production core. […]
All of the FTSA experiments were conducted in HEPES buffer (60 mM HEPES, 150 mM NaCl, pH 7.4). […] The fluorescence was measured on a Bio-Rad CFX384 real-time PCR instrument.

## C#CCN(Cc1cc(=O)[nH][nH]1)Cc1c(F)c(F)c(N=[N+]=[N-])c(F)c1F [PRAPP, 5-(((4-Azido-2,3,5,6-tetrafluorobenzyl)(prop-2-yn-1-yl)amino)methyl)-1,2-dihydro-3H-pyrazol-3-one]
[1]
  concentration of saturation binding kinetics: around 30 μM

## O=c1cc(COc2cc(Cl)cc(Cl)c2)[nH][nH]1 [P2]
14-3-3-H
  binding (Tm shift): no binding
